Results reported in patent publication US12178859B2, “Anti inflammatory composition” (WAKO FILTER TECHNOLOGY CO., LTD., priority 2019, dated 2024).

Tests used:
[1] = tested on: human neutrophil suspension; assay: Neutrophil adhesion test with LPS-activated human neutrophils (96-well plate, crystal violet, OD620); assay type: cell-based; details: human neutrophils activated with E. coli lipopolysaccharide, 1 hour at 37° C.; control = 100%; FIG. 2A / FIG. 2B
Protocol: (§1) Neutrophils were collected from blood. Specifically, neutrophils were isolated from whole blood collected from healthy humans or dogs using Polymorphprep (Cosmo Bio). The separated neutrophil samples were centrifuged at 2000 rpm for about 40 minutes, then the supernatant was removed, and the residue was transferred to RPMI (SIGMA) medium supplemented with 10-mass % fetal bovine serum (Tissue Culture Biologicals, USA) and diluted to obtain a cell count of 4×10^6 cells/ml, preparing human and canine neutrophil suspensions, respectively. […] The neutrophil adhesion rate was determined as follows. The value obtained by quantifying the activated neutrophils adhered to the wells in the control without containing lysozyrne-chitosan complex or decanoic acid was set as 100%, and compared with the value obtained by quantifying the activated neutrophils adhered to the wells in the same way for the test substances in each Example and Comparative Example. Neutrophil Adhesion Rate (%)=[Quantitative Value of Adhesive Activated Neutrophils in Each Example and Comparative Example]/[Quantitative Value of Adhesive Activated Neutrophils in Control]×100 In the present invention, the ability to suppress the neutrophil adhesive reaction was evaluated by the following procedure. […]

[2] = tested on: canine neutrophil suspension; assay: Neutrophil adhesion test with LPS-activated canine neutrophils (96-well plate, crystal violet, OD620 and microscopy); assay type: cell-based, dogs; details: 0.2 mg/ml lysozyme-chitosan complex and/or 0.4 mg/ml decanoic acid, magnification 40 times, FIG. 3B to 3D
Protocol: as §1

## CCCCCCCCCC(=O)O [decanoic acid]
[1]
  neutrophil adhesion rate (%) as the concentration of test substance increases: did not decrease
[2]
  distribution of adherent neutrophils stained with crystal violet (photomicrograph): widely distributed
